Measurements taken from ChEMBL document CHEMBL1136991, “Novel potent BRAF inhibitors: toward 1 nM compounds through optimization of the central phenyl ring” (J Med Chem, 2009).

Experiments:
[1] = biological target: Proto-oncogene tyrosine-protein kinase Src (Homo sapiens) (UniProt P12931); assay: Inhibition of Src at 1 uM relative to control
[2] = biological target: Serine/threonine-protein kinase Chk2 (Homo sapiens) (UniProt O96017); assay: Inhibition of CHK2 at 1 uM relative to control
[3] = biological target: Serine/threonine-protein kinase pim-3 (Homo sapiens) (UniProt Q86V86); assay: Inhibition of PIM3 at 1 uM relative to control
[4] = biological target: MAP kinase-interacting serine/threonine-protein kinase 1 (Homo sapiens) (UniProt Q9BUB5); assay: Inhibition of MNK1 at 1 uM relative to control
MAP kinase-interacting serine/threonine-protein kinase 1 (Homo sapiens), sequence (Q9BUB5 whole entry, looked up): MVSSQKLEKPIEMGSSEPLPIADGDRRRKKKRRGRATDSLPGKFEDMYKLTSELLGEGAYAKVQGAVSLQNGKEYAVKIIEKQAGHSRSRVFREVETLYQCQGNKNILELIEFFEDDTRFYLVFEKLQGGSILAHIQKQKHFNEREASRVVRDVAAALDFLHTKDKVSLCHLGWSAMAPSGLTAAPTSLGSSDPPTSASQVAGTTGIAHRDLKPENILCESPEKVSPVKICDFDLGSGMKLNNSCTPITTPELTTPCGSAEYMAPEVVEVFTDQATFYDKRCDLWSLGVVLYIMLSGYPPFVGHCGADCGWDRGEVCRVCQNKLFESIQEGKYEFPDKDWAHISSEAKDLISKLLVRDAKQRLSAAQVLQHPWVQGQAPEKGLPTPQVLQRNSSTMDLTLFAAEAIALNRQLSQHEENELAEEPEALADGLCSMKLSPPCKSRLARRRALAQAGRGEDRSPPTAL

[5] = biological target: Serine/threonine-protein kinase PLK1 (Homo sapiens) (UniProt P53350); assay: Inhibition of PLK1 at 1 uM relative to control
Serine/threonine-protein kinase PLK1 (Homo sapiens), sequence (P53350 whole entry): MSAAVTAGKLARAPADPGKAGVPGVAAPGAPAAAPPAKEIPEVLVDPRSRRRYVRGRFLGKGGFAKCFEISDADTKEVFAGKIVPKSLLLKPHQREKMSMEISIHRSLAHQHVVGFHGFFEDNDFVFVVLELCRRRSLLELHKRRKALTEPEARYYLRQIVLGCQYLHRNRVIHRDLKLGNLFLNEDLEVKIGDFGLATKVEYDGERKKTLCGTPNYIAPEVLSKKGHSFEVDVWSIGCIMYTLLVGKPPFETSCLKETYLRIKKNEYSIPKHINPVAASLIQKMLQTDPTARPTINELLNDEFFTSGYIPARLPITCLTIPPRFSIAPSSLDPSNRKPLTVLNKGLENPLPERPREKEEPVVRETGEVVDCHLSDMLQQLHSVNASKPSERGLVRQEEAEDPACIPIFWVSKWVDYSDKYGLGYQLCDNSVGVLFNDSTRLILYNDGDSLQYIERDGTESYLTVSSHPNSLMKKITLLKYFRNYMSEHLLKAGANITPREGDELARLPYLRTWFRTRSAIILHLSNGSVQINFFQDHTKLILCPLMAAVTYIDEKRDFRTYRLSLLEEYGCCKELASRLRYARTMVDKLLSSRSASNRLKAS

[6] = biological target: Glycogen synthase kinase-3 beta (Homo sapiens) (UniProt P49841); assay: Inhibition of GSK3-beta at 1 uM relative to control
Glycogen synthase kinase-3 beta (Homo sapiens), sequence (P49841 whole entry, looked up): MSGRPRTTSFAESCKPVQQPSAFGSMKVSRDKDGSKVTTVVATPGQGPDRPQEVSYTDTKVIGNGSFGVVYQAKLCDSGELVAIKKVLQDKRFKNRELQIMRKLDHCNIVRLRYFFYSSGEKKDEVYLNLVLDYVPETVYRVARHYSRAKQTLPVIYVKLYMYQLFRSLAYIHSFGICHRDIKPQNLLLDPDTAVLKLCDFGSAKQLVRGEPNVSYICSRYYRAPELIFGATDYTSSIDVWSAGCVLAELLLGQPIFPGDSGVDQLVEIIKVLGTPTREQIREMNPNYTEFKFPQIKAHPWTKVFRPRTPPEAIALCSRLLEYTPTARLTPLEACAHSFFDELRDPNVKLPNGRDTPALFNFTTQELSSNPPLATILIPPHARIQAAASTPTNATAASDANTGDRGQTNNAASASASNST

[7] = biological target: T1, 5'-AMP-activated protein kinase subunit beta-1 (Homo sapiens) (UniProt Q9Y478); assay: Inhibition of AMPK at 1 uM relative to control
T1 sequence (whole entry): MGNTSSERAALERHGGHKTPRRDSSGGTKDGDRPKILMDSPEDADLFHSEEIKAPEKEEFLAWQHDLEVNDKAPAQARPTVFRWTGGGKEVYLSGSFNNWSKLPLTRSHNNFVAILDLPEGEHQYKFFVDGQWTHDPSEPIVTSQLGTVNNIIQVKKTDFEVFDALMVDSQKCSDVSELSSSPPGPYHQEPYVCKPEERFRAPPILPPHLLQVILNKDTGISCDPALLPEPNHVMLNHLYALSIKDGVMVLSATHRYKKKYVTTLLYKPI

[8] = biological target: Serine/threonine-protein kinase PAK 6 (Homo sapiens) (UniProt Q9NQU5); assay: Inhibition of PAK6 at 1 uM relative to control
Serine/threonine-protein kinase PAK 6 (Homo sapiens), sequence (Q9NQU5 whole entry, looked up): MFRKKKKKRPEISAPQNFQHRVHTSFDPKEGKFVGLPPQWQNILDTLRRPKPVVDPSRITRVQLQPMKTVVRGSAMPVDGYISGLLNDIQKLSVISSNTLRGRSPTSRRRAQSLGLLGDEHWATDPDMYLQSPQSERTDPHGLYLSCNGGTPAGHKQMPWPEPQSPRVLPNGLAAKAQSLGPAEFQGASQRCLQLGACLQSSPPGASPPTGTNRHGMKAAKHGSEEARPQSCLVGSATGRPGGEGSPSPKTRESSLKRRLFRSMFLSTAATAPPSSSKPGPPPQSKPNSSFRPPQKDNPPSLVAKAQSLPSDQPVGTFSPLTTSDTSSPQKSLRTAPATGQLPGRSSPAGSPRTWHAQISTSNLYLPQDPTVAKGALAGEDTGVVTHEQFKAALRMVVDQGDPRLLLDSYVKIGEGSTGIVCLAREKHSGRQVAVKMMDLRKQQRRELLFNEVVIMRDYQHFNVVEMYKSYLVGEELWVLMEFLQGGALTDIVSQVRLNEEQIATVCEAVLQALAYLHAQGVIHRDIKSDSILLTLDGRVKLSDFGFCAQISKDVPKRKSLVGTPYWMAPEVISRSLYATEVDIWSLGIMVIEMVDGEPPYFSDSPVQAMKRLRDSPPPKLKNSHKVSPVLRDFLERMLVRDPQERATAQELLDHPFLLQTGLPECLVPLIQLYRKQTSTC

[9] = biological target: Ribosomal protein S6 kinase beta-1 (Homo sapiens) (UniProt P23443); assay: Inhibition of S6K1 at 1 uM relative to control
[10] = biological target: [Pyruvate dehydrogenase (acetyl-transferring)] kinase isozyme 1, mitochondrial (Homo sapiens) (UniProt Q15118); assay: Inhibition of PDK1 at 1 uM relative to control
[11] = biological target: Dual specificity tyrosine-phosphorylation-regulated kinase 1A (Homo sapiens) (UniProt Q13627); assay: Inhibition of DYRK1A at 1 uM relative to control
[12] = biological target: T2, Dual specificity tyrosine-phosphorylation-regulated kinase 2 (Homo sapiens) (UniProt Q92630); assay: Inhibition of DYRK2 at 1 uM relative to control
T2 sequence (whole entry): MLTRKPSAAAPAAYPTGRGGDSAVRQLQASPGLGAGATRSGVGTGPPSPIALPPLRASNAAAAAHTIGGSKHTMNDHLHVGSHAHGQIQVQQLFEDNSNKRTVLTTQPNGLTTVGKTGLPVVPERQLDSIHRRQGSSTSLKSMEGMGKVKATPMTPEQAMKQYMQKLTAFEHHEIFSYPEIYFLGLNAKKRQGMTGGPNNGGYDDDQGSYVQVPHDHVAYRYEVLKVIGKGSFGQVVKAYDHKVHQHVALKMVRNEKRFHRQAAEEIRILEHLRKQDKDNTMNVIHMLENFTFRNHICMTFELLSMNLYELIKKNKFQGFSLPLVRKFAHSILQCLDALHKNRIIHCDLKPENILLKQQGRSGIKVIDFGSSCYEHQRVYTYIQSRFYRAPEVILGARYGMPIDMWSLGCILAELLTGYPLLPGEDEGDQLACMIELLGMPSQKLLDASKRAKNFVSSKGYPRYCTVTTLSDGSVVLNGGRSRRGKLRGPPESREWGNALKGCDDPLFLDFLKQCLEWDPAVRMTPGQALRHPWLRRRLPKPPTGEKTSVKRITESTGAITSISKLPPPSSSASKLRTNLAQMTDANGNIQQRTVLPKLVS

[13] = biological target: Serine/threonine-protein kinase PAK 5 (Homo sapiens) (UniProt Q9P286); assay: Inhibition of PAK5 at 1 uM relative to control
Serine/threonine-protein kinase PAK 5 (Homo sapiens), sequence (Q9P286 whole entry, looked up): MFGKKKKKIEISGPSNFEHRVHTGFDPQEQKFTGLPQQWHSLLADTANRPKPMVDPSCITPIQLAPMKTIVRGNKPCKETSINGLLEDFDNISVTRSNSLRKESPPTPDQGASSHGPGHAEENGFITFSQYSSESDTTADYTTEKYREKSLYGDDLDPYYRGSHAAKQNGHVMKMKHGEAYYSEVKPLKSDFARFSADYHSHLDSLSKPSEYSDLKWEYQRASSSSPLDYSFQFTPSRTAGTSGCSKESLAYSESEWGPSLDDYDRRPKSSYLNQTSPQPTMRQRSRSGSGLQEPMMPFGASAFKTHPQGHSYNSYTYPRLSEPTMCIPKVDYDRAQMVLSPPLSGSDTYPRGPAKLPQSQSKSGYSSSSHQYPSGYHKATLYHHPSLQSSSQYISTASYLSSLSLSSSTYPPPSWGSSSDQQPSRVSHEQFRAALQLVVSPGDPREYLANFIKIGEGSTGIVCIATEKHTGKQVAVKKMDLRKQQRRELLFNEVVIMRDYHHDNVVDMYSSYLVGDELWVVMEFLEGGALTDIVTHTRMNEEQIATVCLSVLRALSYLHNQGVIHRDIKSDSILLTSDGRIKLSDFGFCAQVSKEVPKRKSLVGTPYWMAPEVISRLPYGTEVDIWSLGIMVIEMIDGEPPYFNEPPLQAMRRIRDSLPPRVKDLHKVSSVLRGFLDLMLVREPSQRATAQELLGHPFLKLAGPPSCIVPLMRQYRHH

[14] = biological target: T3, Eukaryotic elongation factor 2 kinase (Homo sapiens) (UniProt O00418); assay: Inhibition of EFK2 at 1 uM relative to control
T3 sequence (whole entry): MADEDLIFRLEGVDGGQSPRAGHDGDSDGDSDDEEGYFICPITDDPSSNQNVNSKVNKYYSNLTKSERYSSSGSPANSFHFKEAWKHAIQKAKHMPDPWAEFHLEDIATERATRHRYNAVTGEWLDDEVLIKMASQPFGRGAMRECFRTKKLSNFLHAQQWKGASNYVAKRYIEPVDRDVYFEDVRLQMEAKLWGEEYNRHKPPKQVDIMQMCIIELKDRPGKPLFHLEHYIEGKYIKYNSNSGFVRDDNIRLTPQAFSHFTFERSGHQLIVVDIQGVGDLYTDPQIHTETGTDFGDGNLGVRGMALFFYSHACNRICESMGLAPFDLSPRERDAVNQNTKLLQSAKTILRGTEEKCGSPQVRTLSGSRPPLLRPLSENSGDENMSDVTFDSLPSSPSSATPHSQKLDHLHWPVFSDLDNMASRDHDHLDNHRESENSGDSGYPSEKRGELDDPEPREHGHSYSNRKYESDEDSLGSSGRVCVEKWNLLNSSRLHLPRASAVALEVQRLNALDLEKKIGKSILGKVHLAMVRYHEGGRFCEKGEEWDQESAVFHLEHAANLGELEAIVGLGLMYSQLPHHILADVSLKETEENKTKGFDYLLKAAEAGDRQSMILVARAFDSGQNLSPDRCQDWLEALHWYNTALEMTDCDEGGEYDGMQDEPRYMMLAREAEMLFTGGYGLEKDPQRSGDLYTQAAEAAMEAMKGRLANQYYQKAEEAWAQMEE

[15] = biological target: Tyrosine-protein kinase Lck (Homo sapiens) (UniProt P06239); assay: Inhibition of Lck at 1 uM relative to control
Tyrosine-protein kinase Lck (Homo sapiens), sequence (P06239 2-509 limits assumed): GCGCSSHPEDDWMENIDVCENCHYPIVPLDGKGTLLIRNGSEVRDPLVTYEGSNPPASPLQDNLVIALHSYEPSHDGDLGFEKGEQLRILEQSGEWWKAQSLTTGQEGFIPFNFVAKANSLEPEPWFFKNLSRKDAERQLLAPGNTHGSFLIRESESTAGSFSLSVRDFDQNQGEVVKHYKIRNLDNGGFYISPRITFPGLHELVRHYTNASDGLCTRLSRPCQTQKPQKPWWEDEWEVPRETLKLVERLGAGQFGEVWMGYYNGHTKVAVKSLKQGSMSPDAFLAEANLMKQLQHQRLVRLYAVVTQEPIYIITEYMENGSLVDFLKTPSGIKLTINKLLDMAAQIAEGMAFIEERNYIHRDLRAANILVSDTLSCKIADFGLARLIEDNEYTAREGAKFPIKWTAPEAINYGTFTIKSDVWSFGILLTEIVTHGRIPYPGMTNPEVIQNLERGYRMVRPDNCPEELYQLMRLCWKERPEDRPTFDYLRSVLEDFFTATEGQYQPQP

[16] = biological target: Calcium/calmodulin-dependent protein kinase type 1 (Homo sapiens) (UniProt Q14012); assay: Inhibition of CAMK1 at 1 uM relative to control

Serine/threonine-protein kinase Chk2 (Homo sapiens), sequence (O96017 whole entry): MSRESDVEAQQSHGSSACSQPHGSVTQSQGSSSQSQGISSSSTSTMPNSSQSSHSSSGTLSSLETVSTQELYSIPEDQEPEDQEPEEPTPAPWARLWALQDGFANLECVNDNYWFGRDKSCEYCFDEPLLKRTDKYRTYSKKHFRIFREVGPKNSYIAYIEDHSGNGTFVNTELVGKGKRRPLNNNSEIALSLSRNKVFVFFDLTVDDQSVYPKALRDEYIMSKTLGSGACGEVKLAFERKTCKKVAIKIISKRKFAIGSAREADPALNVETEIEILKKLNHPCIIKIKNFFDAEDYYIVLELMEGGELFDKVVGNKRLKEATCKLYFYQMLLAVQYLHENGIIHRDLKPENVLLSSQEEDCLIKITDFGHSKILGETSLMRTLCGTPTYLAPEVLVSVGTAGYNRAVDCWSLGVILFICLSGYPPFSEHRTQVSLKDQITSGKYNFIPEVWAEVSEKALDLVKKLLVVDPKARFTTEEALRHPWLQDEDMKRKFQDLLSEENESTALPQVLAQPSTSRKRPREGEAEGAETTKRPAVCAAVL
Proto-oncogene tyrosine-protein kinase Src (Homo sapiens), sequence (P12931 2-536 limits assumed): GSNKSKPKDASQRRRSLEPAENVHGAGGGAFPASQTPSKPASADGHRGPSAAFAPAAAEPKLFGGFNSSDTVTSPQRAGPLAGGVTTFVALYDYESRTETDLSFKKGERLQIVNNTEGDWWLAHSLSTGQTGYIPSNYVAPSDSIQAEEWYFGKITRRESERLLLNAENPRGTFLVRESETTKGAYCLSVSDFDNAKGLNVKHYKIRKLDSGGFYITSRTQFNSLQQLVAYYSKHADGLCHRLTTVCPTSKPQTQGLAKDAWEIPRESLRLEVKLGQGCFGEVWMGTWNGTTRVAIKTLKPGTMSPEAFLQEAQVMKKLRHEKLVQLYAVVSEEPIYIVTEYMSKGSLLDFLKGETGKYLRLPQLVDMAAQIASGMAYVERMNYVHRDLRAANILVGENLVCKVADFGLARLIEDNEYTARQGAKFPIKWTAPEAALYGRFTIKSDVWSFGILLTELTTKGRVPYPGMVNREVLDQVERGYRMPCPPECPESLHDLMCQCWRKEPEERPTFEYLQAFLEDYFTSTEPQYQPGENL

residual activity [1] [%]	residual activity [2] [%]	residual activity [3] [%]	residual activity [4] [%]	residual activity [5] [%]	residual activity [6] [%]	residual activity [7] [%]	residual activity [8] [%]	residual activity [9] [%]	residual activity [10] [%]	residual activity [11] [%]	residual activity [12] [%]	residual activity [13] [%]	residual activity [14] [%]	residual activity [15] [%]	residual activity [16] [%]	SMILES
< 25	100	100	100	100	100	100	100	100	100	100	100	75	100	< 25	< 25	CSc1cc(Oc2ccnc3[nH]c(=O)[nH]c23)ccc1NC(=O)Nc1cccc(C(F)(F)F)c1
< 25	100	100	100	100	75	100	100	75	100	100	100	100	75	< 25	< 25	O=C(Nc1cc(C(F)(F)F)ccc1F)Nc1ccc(Oc2ccnc3[nH]c(=O)[nH]c23)c2ccccc12
< 25	75	75	75	75	75	75	75	100	100	100	100	75	100	< 25	75	CC(C)(C)c1cccc(NC(=O)Nc2ccc(Oc3ccnc4[nH]c(=O)[nH]c34)c3ccccc23)c1
